In patent US20100068260A1, “Methods, Compositions and Device for Directed and Controlled Heating and Release of Agents” (priority 2007, published 2010):

Tests used:
[1] = UV-Vis analysis of disulfide bond stability to heat and hydroxylamine; type: physicochemical; conditions: with and without hydroxylamine solution; room temperature to 90° C., 15 minutes each; FIG. 18-19
Method: The solution was heated for 15 minutes at each temperature and allowed to cool to room temp before the spectra were taken. ˜1 mg of DTT was added to the solution to cleave the remaining disulfide bonds.

[2] = UV-Vis detection of chromophore release on heating liposomes (DPPC, DSPE-PEG2000, SATA-DSPE, PDP-PE); type: physicochemical; conditions: negative control without hydroxylamine, heated to 90° C.; FIG. 16
Method: To deprotect the thiol group on the liposomes 100 μL of 0.5 M hydroxylamine with 25 mM EDTA pH 7.3 in PBS buffer were added to 50 μL of PBS buffer containing the liposomes. The mixture was gently mixed over an hour. The procedure for deprotection was taken from Pierce.
50 μL of liposomes formed by the second method were diluted into 650 μL of PBS. UV-Vis spectra were taken of PBS as a blank, the liposomes in PBS, and hydroxylamine solution in PBS all at room temperature.
The liposomes were heated to 40 to 90° C. at 10 degree intervals for 10 minutes each, upon cooling to room temperature UV-Vis spectra was taken; the spectra are shown in FIG. 15.
As a negative control, the same procedure was performed on the same concentration of liposomes and PBS without the hydroxylamine solution. After heating the negative control to 90° C. DTT, which serves to cleave any disulfide bonds present, was added to visualize the amount of PDP-PE that is present in the liposomes, as shown in FIG. 16.

## c1ccc(SSc2ccccn2)nc1 [2,2′ dithiodipyridine, 2,2′-dithiodipyridine]
[1]
  reduction of disulfide on heating: reduction is occurring

## CCCCCCCCCCCCCCCC(=O)OC[C@H](COP(=O)(O)OCCNC(=O)CCSSc1ccccn1)OC(=O)CCCCCCCCCCCCCCC [PDP-PE, N-[3-(2-Pyridyldithio)propionyl]-1,2-dipalmitoyl-sn-glycero-3-phosphoethanolamine]
[2]
  reduction of PDP-PE with only heat: does not seem to be reduced
